How the values were obtained:
[1] = within 24 h; ref Shimamoto et al., 2021; Le et al., 2013; cited from earlier work
[2] = Population pharmacokinetic analysis (nonlinear mixed-effects, one-compartment) of vancomycin therapeutic drug monitoring data in critically ill patients
Text: This retrospective study used medical records of critically ill patients hospitalized in Kaohsiung Veterans General Hospital, Taiwan, from 1 January 2014, to 31 December 2016. The study was approved by the Kaohsiung Veteran General Hospital Institutional Review Board (certificate number VGHKS18-CT9-12). A waiver of informed consent was granted as the data were collected retrospectively from medical records. The identity of the study subjects was masked through the use of a study identifier. Data were de-identified. […] Patients were excluded if vancomycin concentrations in blood could not be detected or if there were incomplete data on the vancomycin regimen. As per the study protocol the blood samples were collected >1 h after the end of dose administration (peak concentration) and within 30 min before the next dose (trough concentration). Trough and peak concentrations obtained after administering at least four equal repeated doses were referred to as the steady-state concentrations.
Data abstracted included height, weight, age, principal diagnosis at admission, whether an open-heart surgery had been performed, serum creatinine concentrations, whether extracorporeal membrane oxygenation (ECMO), and vancomycin dosage, frequency, route, speed, and administration time indications for the use of vancomycin. The estimated glomerular filtration rate (eGFR) was calculated using the bedside Schwartz equation from serum creatinine values ([Schwartz et al., 2009]). There were nine distinct diagnostic categories at admission. To improve simplicity and interpretability, diagnoses were grouped into two major categories based on clinical differences, depending on the severity of the bacterial infection for which vancomycin was used. The first category (severe infections) corresponded to people diagnosed with pneumonia/bacteremia/osteomyelitis/meningitis/deep tissue infection, and the second category (mild infections) included people diagnosed with cellulitis/surgical prevention/neutropenic fever/others.
Vancomycin plasma concentrations were transformed into their natural logarithms. The corresponding concentration versus time plot was placed on a logarithmic scale for all the subjects to address normality. The concentration-time profiles were characterized using nonlinear mixed-effects modeling using Phoenix NLME (Certara Inc. version 8.2). Concentrations below the lower limit of detection (LLOD) were excluded from the analysis. Concentrations below the lower limit of quantitation (LLOQ) were divided by two to obtain an unbiased conservative estimate of the true concentration. One- and two-compartment models with first-order elimination with additive, proportional, and combined error models were considered for the base model. The between-subject variability was normally distributed with a mean equal to 0 and variance equal to ω^2. The allometric scaling exponent for clearance and volume of distribution were fixed at 0.75 and 1, respectively ([Holford, 1996]; [Chung et al., 2021]). The models were run with the FOCE-ELS algorithm and simple run mode. […] Weight was applied a priori to the base model. A sensitivity analysis was performed after the final structural model selection, and the initial estimates were changed to evaluate the robustness of the model.
The clinically relevant categorical covariates that were investigated included the major diagnosis category/infection severity, extracorporeal membrane oxygenation (ECMO) status, and surgery status. Covariate investigation was conducted in stepwise covariate search run mode in Phoenix (Phoenix®, version 8.2, Certara, Princeton, NJ) using stepwise forward inclusion followed by stepwise backward elimination. The models were assessed by a reduction or increase in the objective function value (OFV), equal to −2*log likelihood. During forward selection, any covariate that reduced the OFV by > 3.84 [p < 0.05, χ2 distribution with 1 degree of freedom (df)] was significant.

[3] = ref Chung et al., 2021, Matusik et al., 2022, cited from earlier work
Text: In pediatric patients, vancomycin pharmacokinetics can be highly variable due to age-related differences in drug absorption, distribution, metabolism, and elimination. Population pharmacokinetic models provide quantitative and semi-quantitative frameworks for optimizing dosing regimens. They achieve this by identifying sources of variability, by determining factors that influence the pharmacokinetic behavior of the drug, and quantifying the magnitude of unexplained variability ([Stockmann et al., 2013]).

[4] = calculated from final model, median weight, ηCl = 0
[5] = non-parametric bootstrap of final model, 1,000 datasets
[6] = non-parametric bootstrap, 1,000 datasets

SMILES: CN[C@H](CC(C)C)C(=O)N[C@H]1C(=O)N[C@@H](CC(N)=O)C(=O)N[C@H]2C(=O)N[C@H]3C(=O)N[C@H](C(=O)N[C@H](C(=O)O)c4cc(O)cc(O)c4-c4cc3ccc4O)[C@H](O)c3ccc(c(Cl)c3)Oc3cc2cc(c3O[C@@H]2O[C@H](CO)[C@@H](O)[C@H](O)[C@H]2O[C@H]2C[C@](C)(N)[C@H](O)[C@H](C)O2)Oc2ccc(cc2Cl)[C@H]1O [vancomycin]
- administered dose excreted unchanged [1]: approximately 90%
- Clearance value, patients with severe infections ([2]; DIAG = 0 (pneumonia/bacteremia/osteomyelitis/meningitis/deep tissue infection), calculated from final model, median weight (12.6 kg), ηCl = 0): 1.03 L/h
- Clearance value, patients with mild infections ([2]; DIAG = 1 (cellulitis/surgical prevention/neutropenic fever/others), calculated from final model, median weight (12.6 kg), ηCl = 0): 0.63 L/h
- Clearance value, patients without ECMO ([2]; ECMO = 0, calculated from final model for an individual of median weight (12.6 kg), ηCl = 0): 1.03 L/h
- % difference (reduction) in clearance, ECMO versus non-ECMO patients [2, 4]: ∼56%
- % difference (reduction) in clearance, mild versus severe infections [2, 4]: ∼39%
- tvCL, bootstrap median [2, 5]: 1.01 L/h
- tvV, bootstrap median [2, 5]: 11.85 L
- dCldDiag, bootstrap median [2, 6]: −0.48
- dCldECMO, bootstrap median [2, 6]: −0.79
- tvV, typical value of volume of distribution, final model estimate ([2]; one-compartment model, first-order elimination, proportional error, Phoenix NLME FOCE-ELS, IV infusion, 90 critically ill Asian patients, 263 samples, typical individual 12.6 kg, allometric exponent 1 fixed): 11.61 L
- half-life, HDF ([3]; dialysis mode hemodiafiltration): 2.1 h
- half-life, HD ([3]; dialysis mode hemodialysis): 3.5 h

Source: publication PMC11897554, “Pharmacokinetic effect of disease severity and use of extracorporeal membrane oxygenation in critically ill Asian patients receiving vancomycin” (Frontiers in Pharmacology, 2025)
